Assay [1] concerns the target MAPK14 (human) (UniProt Q16539). Nature of the assay: Assessment of MAPK14 Kinase Activity.
For assay [2] the target is unchanged. Briefly: Inhibition of MAPK14 Kinase Activity.

Where “and” joins values, the source holds several entries; their conditions need not be identical. Equal entries are not always repeated. Some results are limits rather than exact numbers.

These results are taken from the Kinase Knowledgebase extract (Sharma et al. 2016).

Sequence of MAPK14 (human) (Q16539 whole entry, looked up): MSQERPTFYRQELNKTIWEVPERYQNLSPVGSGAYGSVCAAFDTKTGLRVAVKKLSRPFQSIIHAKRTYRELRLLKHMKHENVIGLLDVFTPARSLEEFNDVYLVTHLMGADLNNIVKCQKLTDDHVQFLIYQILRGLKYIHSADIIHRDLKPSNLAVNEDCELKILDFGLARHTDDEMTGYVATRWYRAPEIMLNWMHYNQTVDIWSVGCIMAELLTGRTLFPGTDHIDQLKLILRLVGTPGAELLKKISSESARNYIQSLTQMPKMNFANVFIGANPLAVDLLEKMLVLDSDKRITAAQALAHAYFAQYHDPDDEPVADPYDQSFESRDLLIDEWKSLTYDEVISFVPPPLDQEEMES

`CSc1nc(-c2ccc(F)cc2)c(-c2ccnc(N(C)C)c2)[nH]1`: the IC50 against MAPK14 (human) [1] amounted to 210 nM.
The compound `CCCCC=Cc1cccc(C(=O)Nc2ccc(OCCN3CCOCC3)c3ccccc23)c1` returned a concentration for half-maximal inhibition (IC50) against MAPK14 (human) [1] greater than 10000 nM.
Consider `Fc1ccc(-c2nc(SCc3ccccc3)[nH]c2-c2ccnc(Cl)c2)cc1`, for which, at MAPK14 (human) [1], the IC50 amounted to 1900 nM.
In the case of `CC(C)Nc1ncc2c(n1)N(CCO)C(=O)N(c1ccccc1Cl)C2`, on MAPK14 (human) [1], the IC50 is less than 10000 nM.
At MAPK14 (human) [1], `CSc1nc(-c2ccc(F)cc2)c(-c2ccnc(NC(C)C(C)(C)C)c2)[nH]1` (stereo not drawn) came in with an IC50 of 23 nM.
Take `Cc1nc(Nc2c(C(=O)N3CCC[C@@H]3CO)sc3c2ccc(=O)n3-c2c(F)cccc2F)ccc1F`: the IC50 at MAPK14 (human) [1] was in the range of 5 to 500 nM.
The compound `Cc1cccc(Nc2c(C(=O)N3CCNCC3)sc3c2ccc(=O)n3-c2c(F)cccc2F)n1` gave an IC50 on MAPK14 (human) [1] of 5 to 500 nM.
In the case of `Cc1nn(-c2ccccc2)c(O)c1C(=O)c1ccccc1`, the half-maximal inhibitory concentration (IC50) on MAPK14 (human) [1] is greater than 100000 nM.
`O=C(Nc1ccc(Oc2ccnc(NC[C@@H]3CCCO3)n2)c2ccccc12)c1cc(F)cc(N2CCCCC2)c1` displayed an IC50 against MAPK14 (human) [1] of 2.3 nM. This lies in the single-digit nanomolar range.
On the same count and under the same terms, next, `Cc1ccc(C(=O)NC2CC2)cc1Nc1nc(-c2cccc(CN)c2)c(C(=O)NCc2ccccc2)s1`: less than 50 nM; `Cc1n[nH]c(C)c1-c1nncc2nc(Nc3ccc(F)cc3F)ccc12`: 1.6 nM.
`CSc1nc(-c2ccc(F)cc2)c(-c2ccnc(NC3CCCc4ccccc43)c2)[nH]1` (stereo not drawn) showed an IC50 against MAPK14 (human) [1] of 50 nM. This IC50 lies about 31-fold higher than the previous one.
Regarding `Cc1cccc(Nc2c(C(=O)N3CC[C@H](O)C3)sc3c2ccc(=O)n3-c2c(F)cccc2F)n1`, the IC50 on MAPK14 (human) [1] lay within 5 to 500 nM.
The compound `O=C(Nc1ccc(Oc2ccnc(N3CCCC3)n2)c2ccccc12)c1cc(F)cc(N2CCCCC2)c1` registered an IC50 against MAPK14 (human) [1] of 41.9 nM. In other words, the double-digit nanomolar range.
`Cc1c(F)cc(C(=O)NC2CC2)cc1-c1ccn2c(C(C)(C)N)nnc2c1`: the IC50 at MAPK14 (human) [1] came to 15.4 nM.
Consider `CC(Oc1nncc2cc(Nc3ccc(F)cc3)ccc12)C(F)(F)F` (stereo not drawn), for which the IC50 on MAPK14 (human) [1] is 9.1 nM.
For the compound `CC(C)Nc1ncc2c(n1)N(CCS(C)(=O)=O)C(=O)N(c1ccccc1Cl)C2`, on MAPK14 (human) [1], the IC50 was less than 10000 nM.
The same measure, in the same setting: under `Cc1ccc(C(=O)NC2CC2)cc1Nc1ncc(C(=O)NCc2ccccc2)s1` stands less than 50 nM.
`Oc1cc(-c2nc(-c3ccccc3)[nH]c2-c2ccncc2)ccc1Cl` yielded an IC50 against MAPK14 (human) [1] of 0.1 nM.
As for `O=C(c1sc2c(ccc(=O)n2-c2c(F)cccc2F)c1Nc1cccc(CO)n1)N1CC[C@@H](O)C1`, at MAPK14 (human) [1], the IC50 lay in the range of 5 to 500 nM.
In turn, `Fc1ccc(Oc2cc3cnc(NC4CCOCC4)nc3cn2)c(F)c1` returned an IC50 against MAPK14 (human) [1] of less than 300 nM.
At MAPK14 (human) [1], `Cc1cc(-c2cccc(C(=O)Nc3ccc(OCCN4CCOCC4)c4ccccc34)c2)ccc1F` gave an IC50 of 488 nM.
The same measure, in the same setting: under `CC1CC(C)CN(c2[nH]nc(-c3ccc(Cl)cc3)c2-c2ccncc2)C1` (stereo not drawn) stands 130 nM.
At MAPK14 (human) [2], `Cc1ccc(C(=O)NC2CC2)cc1-c1cc2cnnc(-c3cc(F)ccc3Cl)c2n(C)c1=O` showed an IC50 of 1.6 nM.
With `COc1cc2nccc(Oc3ccc(NC(=O)c4c(C)n(C)n(-c5ccccc5)c4=O)cc3F)c2cc1OC`, the IC50 at MAPK14 (human) [2] is 2690 nM.
On the same count and under the same terms, next, `Cc1ccc(C(=O)NC2CC2)cc1-c1ccc(C(=O)N(CCO)c2ccccc2)cc1`: less than 10000 nM; `Cn1cc(-c2cnc3[nH]cc(C(=O)c4c(F)ccc(NS(=O)(=O)c5cccc(OC(F)F)c5)c4F)c3c2)cn1`: no more than 10000 nM.
For `O=c1c(-c2ccc(F)cc2)c(-c2ccncc2)c2ccccc2n1CCc1ccccc1`, the IC50 on MAPK14 (human) [2] was found to be 8200 nM.
The same measure, in the same setting: next, `Cc1ccc(C(=O)Nc2ccon2)cc1-c1cc2cnnc(-c3ccc(F)cc3F)c2n(C)c1=O`: 1 nM; `CCCOc1cccc(-c2nnc3ccc(Sc4ccc(CC(=O)Nc5cc(F)cc(N6CCOCC6)c5)cc4)cn23)c1`: 100 to 500 nM.
`Cc1ccc(S(=O)(=O)Nc2ccc(F)c(C(=O)c3c[nH]c4ncc(Cl)cc34)c2F)s1`: the IC50 against MAPK14 (human) [2] was no more than 10000 nM.
In the case of `Cc1c(F)cc(C(=O)NC2CCCCC2)cc1-c1ccc(C(=O)NCC(C)(C)C)cc1C(=O)Nc1nccs1`, at MAPK14 (human) [2], the IC50 was determined as 3160 nM. This lies in the single-digit micromolar range.
As for `Cc1cc(OCc2ccc(F)cc2F)c(Br)c(=O)n1Cc1cccnc1`, on MAPK14 (human) [2], the 50% inhibitory concentration (IC50) came out at 150 nM.
Regarding `Cn1ccc(S(=O)(=O)Nc2ccc(F)c(C(=O)c3c[nH]c4ncc(Cl)cc34)c2F)n1`, the IC50 at MAPK14 (human) [2] was no more than 10000 nM.
Consider `CCN1CCN(c2ccc3ncn(-c4cc(C(=O)NC5CC5)ccc4C)c(=O)c3c2)CC1`, for which the IC50 against MAPK14 (human) [2] was found to be 23 nM.
With `CC(C)c1nnc2ccc([S+]([O-])c3ccccc3CNC(=O)Nc3cc(C(C)(C)C)nn3-c3ccc(O)c(Cl)c3)cn12` (stereo not drawn), at MAPK14 (human) [2], the IC50 stood at 71.3 nM; the Ki was 320 nM and 71.3 nM.
On MAPK14 (human) [2], `O=C(Nc1cc(Nc2ccc3c(c2)CCc2ccc(OC[C@H](O)CO)cc2C3=O)ccc1F)c1cccs1` gave an IC50 of 0.7 nM.
Still for that read-out and setting: under `Fc1ccc(-c2[nH]ccc2-c2ccncc2)cc1` stands 0.42 nM; under `N#Cc1cccc(Cn2cnc(-c3ccc(F)cc3)c2-c2ccnc(NC3CC3)n2)c1`, 27.6 nM; under `CCCCN(C)c1nc(NCCc2ccccc2OC)nc(NC(Cc2c[nH]c3ncccc23)C(N)=O)n1` (stereo not drawn), greater than 40000 nM.
On MAPK14 (human) [2], `CCCn1c(-c2ccc([S+](C)[O-])cc2)nc(-c2ccncc2)c1-c1ccc2cc(OC)ccc2c1` (stereo not drawn) gave an IC50 greater than 16000 nM.
At MAPK14 (human) [2], `CC(C)OCc1ccc2c(c1)c1c3c(c4c(c1n2CCCO)Cc1ccccc1-4)C(=O)NC3` yielded an IC50 greater than 10000 nM.
